Data taken from US20240239759A1, “ISOXAZOLINE COMPOSITIONS AND THEIR USE AS ANTIPARASITICS” (Intervet Inc., priority 2007, published 2024).
Read-outs that look alike come from different tables or passages of the source.

How the values were obtained:
[1] = test system: brown dog ticks (Rhipicephalus sanguineus) nymphs; assay: Efficacy of various isoxazolines against brown dog ticks on Guinea pigs (Example 4); assay type: in vivo; details: po
Method: In this experiment, Guinea pigs were randomly assigned to a treatment group or a negative control (untreated) group. Each group consisted of three Guinea pigs. On Day Zero, each Guinea pig was infested with 100 vital nymphs of R. sanguineus. On Day 1, the Guinea pigs in the treatment groups were orally administered 10 mg/kg bodyweight of various isoxazolines dissolved in 7% DMF-premix and 93% purified water (aqua ad injectabilia). Engorged, detached nymphs were counted (eN) from Day 4 to […] on engorged nymphs (%) (eN control group—EeN treatment group)×100 eN control group
In addition, collected ticks were assessed for molting into the next stage.

[2] = test system: cat fleas (Ctenocephalides felis); assay: Efficacy of various isoxazolines against cat fleas on mice (Example 3); assay type: in vivo; details: Ctenocephalides felis, po, read-out: Flea inhibition relative to negative control
Method: In this experiment, mice were randomly assigned to a treatment group or a negative control (untreated) group. Each group consisted of three mice. The mice in the treatment groups were orally administered 20 mg/kg bodyweight of various isoxazolines dissolved in 7% DMF-premix and 93% purified water (aqua ad injectabilia). The application volume of these treatments was 0.01 mL/g bodyweight. One hour after treatment, each mouse was sedated and generally infested (whole body) with 30 vital, adult fleas (C. felis). To achieve this, the sedated mice were placed into an infestation-jar, and the fleas were placed directly onto the fur. After approximately 30 minutes of feeding, fleas were recovered from the mice. Assessments for inhibition and mortality were conducted 1 hr, 24 hr, and 48 hr after each infestation. The efficacy was calculated as the percentage of inhibited fleas in the treatment groups relative to the negative control group.

[3] = test system: cat fleas (Ctenocephalides felis); assay: Adult fleas fed on artificial membranes with spiked blood (Example 1); details: 48 hr continuous feeding
Method: Adult fleas (20-30) were fed on artificial membranes with blood spiked with Compound 10-1, Compound 11-1, or a positive control (fipronil) at a concentration of 100, 10, or 1 ppm. Flea efficacy was assessed after 48 hr of continuous feeding by comparing the number of killed and damaged fleas with the number of fed fleas. Flea efficacy was 100% for Compound 10-1, Compound 11-1, and fipronil at 100, 10, and 1 ppm.

[4] = Guinea pigs, oral 10 mg/kg on Day 1, infested Day Zero, engorged detached nymphs counted from Day 4, read-out: Inhibition (efficacy on engorged nymphs)
[5] = 1 h, mice, oral 20 mg/kg, infested 1 hr after treatment, 1 hr after infestation
[6] = 24 h, mice, oral 20 mg/kg, infested 1 hr after treatment, 24 hr after infestation
[7] = 48 h, mice, oral 20 mg/kg, infested 1 hr after treatment, 48 hr after infestation

Row | SMILES | pest or weed control at 10 mg/kg [1, 4] [%] | pest or weed control at 20 mg/kg [2, 5] [%] | pest or weed control at 20 mg/kg [2, 6] [%] | pest or weed control at 20 mg/kg [2, 7] [%] | other results
1 | CON=CNC(=O)c1ccc(C2=NOC(c3cc(Cl)cc(Cl)c3)(C(F)(F)F)C2)cc1Cl (stereo not shown) [Compound 5-51] | 52.1 | 0 | 97.8 | 97.8 | –
2 | CCON=CNC(=O)c1ccc(C2=NOC(c3cc(Cl)cc(Cl)c3)(C(F)(F)F)C2)cc1I (stereo not shown) [Compound 5-44] | 15.6 | 0 | 75.6 | 78.9 | –
3 | CCOCN(C(=O)OC)C(=O)c1ccc(C2=NOC(c3cc(Cl)cc(Cl)c3)(C(F)(F)F)C2)cc1C (stereo not shown) [Compound 5-65] | 79.2 | 58.8 | 92.2 | 93.3 | –
4 | Cc1cc(C2=NOC(c3cc(Cl)cc(Cl)c3)(C(F)(F)F)C2)ccc1C(=O)N[C@@H]1CCOC1 (stereo partly shown) [Compound 5-68] | 100 | 75.5 | 91.1 | 95.6 | –
5 | COCN(C(=O)OC)C(=O)c1ccc(C2=NOC(c3cc(Cl)cc(Cl)c3)(C(F)(F)F)C2)cc1C (stereo not shown) [Compound 5-63] | 85.3 | 30 | 95.6 | 98.9 | –
6 | CO/N=C\NC(=O)c1ccc(C2=NOC(c3cc(Cl)cc(Cl)c3)(C(F)(F)F)C2)cc1C (stereo not shown) [Compound 10-1, (Z)-4-[5-(3,5-dichlorophenyl)-5-trifluoromethyl-4,5-dihydroisoxazol-3-yl]-N-[(methoxyimino)methyl]-2-methylbenzamide] | – | – | – | – | Flea efficacy ([3]; blood spiked at 1 ppm): 100%; Flea efficacy ([3]; blood spiked at 10 ppm): 100%; Flea efficacy ([3]; blood spiked at 100 ppm): 100%
7 | Cc1cc(C2=NOC(c3cc(Cl)cc(Cl)c3)(C(F)(F)F)C2)ccc1C(=O)NN(C)c1ccccc1 (stereo not shown) [Compound 5-52] | 93.4 | 0 | 96.7 | 96.7 | –
8 | CO/N=C\NC(=O)c1ccc(C2=NOC(c3cc(Cl)cc(Cl)c3)(C(F)(F)F)C2)cc1C (stereo not shown) [Compound 5-43] | 0 | – | 92.2 | 92.2 | –
9 | CC(=O)N(C(=O)c1ccc(C2=NOC(c3cc(Cl)cc(Cl)c3)(C(F)(F)F)C2)cc1C)c1ncc(Cl)cn1 (stereo not shown) [Compound 5-60] | 78.9 | 26.6 | 96.7 | 96.7 | –
10 | COCN(C(=O)c1ccc(C2=NOC(c3cc(Cl)cc(Cl)c3)(C(F)(F)F)C2)cc1C)c1ncc(C#N)cn1 (stereo not shown) [Compound 5-46] | 26.4 | 0 | 85.6 | 86.7 | –
11 | COC(=O)NC(=O)c1ccc(C2=NOC(c3cc(Br)cc(Br)c3)(C(F)(F)F)C2)cc1C (stereo not shown) [Compound 5-14] | – | – | – | – | pest or weed control at 10 mg/kg ([1]; read-out: Inhibition (efficacy on engorged nymphs)): 22.4%; pest or weed control at 20 mg/kg ([2]; 1 h): 4.4%; pest or weed control at 20 mg/kg ([2]; 24 h): 13.3%; pest or weed control at 20 mg/kg ([2]; 48 h): 22.2%
12 | Cc1cc(C2=NOC(c3cc(Cl)cc(Cl)c3)(C(F)(F)F)C2)ccc1C(=O)NCc1cscn1 (stereo not shown) [Compound 5-66] | 100 | 77.8 | 100 | 100 | –
13 | NC(=O)NC(=O)c1ccc(C2=NOC(c3cc(Cl)cc(Cl)c3)(C(F)(F)F)C2)cc1I (stereo not shown) [Compound 5-59] | 96.3 | 18.8 | 94.4 | 95.6 | –
14 | Cc1cc(C2=NOC(c3cc(Cl)cc(Cl)c3)(C(F)(F)F)C2)ccc1C(=O)Nc1ncc(C#N)cn1 (stereo not shown) [Compound 5-45] | 0 | 0 | 92.2 | 93.3 | –
15 | CCC(=O)N(Cc1cscn1)C(=O)c1ccc(C2=NOC(c3cc(Cl)cc(Cl)c3)(C(F)(F)F)C2)cc1C (stereo not shown) [Compound 5-58] | 100 | 11.1 | 100 | 100 | –
16 | COC(=O)N(C(=O)c1ccc(C2=NOC(c3cc(Cl)cc(Cl)c3)(C(F)(F)F)C2)cc1C)N(C)c1ccccc1 (stereo not shown) [Compound 5-47] | 58.5 | 0 | 95.6 | 96.7 | –
17 | CO/N=C\NC(=O)c1ccc(C2=NOC(c3cc(Cl)cc(Cl)c3)(C(F)(F)F)C2)cc1I (stereo not shown) [Compound 5-62] | 88.5 | 10 | 81.1 | 81.1 | –
18 | CCOCN(C(=O)OC)C(=O)c1ccc(C2=NOC(c3cc(Cl)cc(Cl)c3)(C(F)(F)F)C2)cc1I (stereo not shown) [Compound 5-56] | 76 | 0 | 87.8 | 88.9 | –
19 | Cc1cc(C2=NOC(c3cc(Cl)cc(Cl)c3)(C(F)(F)F)C2)ccc1C(=O)Nc1cncnc1 (stereo not shown) [Compound 5-55] | – | 0 | 92.2 | 93.3 | –
